Test results from publication PMC9416004, “A Versatile Class of 1,4,4-Trisubstituted Piperidines Block Coronavirus Replication In Vitro” (Pharmaceuticals, 2022).
Where two headings read alike, the source gives them in different places.

Experiments:
[1] = test system: HCoV-229E; experiment: Cytopathic effect (CPE) reduction assay with HCoV-229E in HEL cells; format: cell-based, human coronavirus 229E; details: for EC50: Human coronavirus 229E, 120 h, HCoV-229E-infected HEL cells, five days at 35 °C; for Selectivity Index MTS: ratio of CC50 to EC50-MTS; for Selectivity Index MTS / Selectivity Index Microscopy: only values of 10 or higher shown; for Selectivity Index Microscopy: ratio of MCC to EC50-microscopy
[2] = test system: human embryonic lung (HEL) fibroblast cells; details: mock-infected HEL cells; microscopically visible alterations in cell morphology
[3] = in vitro; details: human
[4] = protection against virus-induced CPE by MTS cell viability assay, read-out: Antiviral EC50 MTS
[5] = protection against virus-induced CPE by microscopic scoring, read-out: Antiviral EC50 Microscopy

| SMILES | EC50 [1, 4] | EC50 [1, 5] | Cytotoxicity MCC (minimal cytotoxic concentration) [2] | CC50 [3] | Selectivity Index MTS [1] | Selectivity Index Microscopy [1] |
| --- | --- | --- | --- | --- | --- | --- |
| COC(=O)C[C@H](NC(=O)OC(C)(C)C)C(=O)N(Cc1ccc(Cl)cc1)C1(C(=O)NCc2ccccc2)CCN(Cc2ccccc2)CC1 [Compound 25] | 3.2 ± 0.2 µM | 3.1 µM | 50 µM | 12 µM |  |  |
| C[C@H](NC(=O)OC(C)(C)C)C(=O)N(Cc1ccc(F)cc1)C1(C(=O)NCc2ccccc2)CCN(Cc2ccccc2)CC1 [Compound 38] | 15 ± 3 µM | 12 ± 1 µM | 100 µM | 48 ± 2 µM |  |  |
| COC(=O)C[C@H](NC(=O)OC(C)(C)C)C(=O)N(Cc1ccccc1)C1(C(=O)NC(C)(C)C)CCN(Cc2ccccc2)CC1 [Compound 15, Methyl(S)-4-(benzyl(1-benzyl-4-tert-butylcarbamoylpiperidin-4-yl)amino)-3-tert-butoxycarbonylamino-4-oxobutanoate] | 25 µM | 25 µM | >100 µM | 78 ± 7 µM |  |  |
| COC(=O)C[C@H](NC(=O)OC(C)(C)C)C(=O)N(Cc1ccc(F)cc1)C1(C(=O)NC2CCCCC2)CCN(Cc2ccccc2)CC1 [Compound 13] | > 100 µM | > 100 µM | >100 µM | > 100 µM |  |  |
| CC(C)(C)OC(=O)N[C@@H](CC(N)=O)C(=O)N(Cc1ccccc1)C1(C(=O)NCc2ccccc2)CCN(Cc2ccccc2)CC1 [Compound 42] | 16 ± 3 µM | 13 µM | 100 µM | 40 ± 6 µM |  |  |
| COC(=O)C[C@H](NC(=O)OC(C)(C)C)C(=O)N(Cc1ccc(F)cc1)C1(C(=O)NCc2ccccc2)CCNCC1 [Compound 4] | 78 ± 14 µM | 50 ± 18 µM | 100 µM | 66 ± 7 µM |  |  |
| CC(C)(C)OC(=O)N[C@@H](Cc1ccc(O)cc1)C(=O)N(Cc1ccccc1)C1(C(=O)NCc2ccccc2)CCN(Cc2ccccc2)CC1 [Compound 48] | 9.3 µM | 11 ± 1 µM | >100 µM | > 100 µM | >11 |  |
| COC(=O)C[C@H](NC(=O)OCc1ccccc1)C(=O)N(CCNc1ccccc1)C1(C(=O)NCc2ccccc2)CCN(Cc2ccccc2)CC1 [Compound 57, Methyl(S)-4-((1-benzyl-4-benzylcarbamoylpiperidin-4-yl)(2-(phenylamino)ethyl)amino)-3-benzyloxycarbonylamino-4-oxobutanoate] | 7.1 ± 0.9 µM | 10 µM | 40 µM | 51 ± 9 µM |  |  |
| COC(=O)CNC(=O)C1(N(Cc2ccccc2)C(=O)[C@H](CC(=O)OC)NC(=O)OC(C)(C)C)CCN(Cc2ccccc2)CC1 [Compound 17] | 75 ± 8 µM | 68 ± 3 µM | >100 µM | > 100 µM |  |  |
| COC(=O)C[C@H](NC(=O)OC(C)(C)C)C(=O)N(Cc1ccc(C)cc1)C1(C(=O)NCc2ccccc2)CCN(Cc2ccccc2)CC1 [Compound 22] | 4.3 ± 0.6 µM | 3.1 µM | 75 µM | 31 ± 10 µM |  | 24 |
| CCC(C)N(C(=O)[C@H](CC(=O)OC)NC(=O)OC(C)(C)C)C1(C(=O)NCc2ccccc2)CCN(Cc2ccccc2)CC1 (some centres unmarked) [Compound 20] | 13 ± 1 µM | 14 ± 1 µM | 100 µM | 31 ± 3 µM |  |  |
| CC(C)(C)OC(=O)NCC(=O)N(Cc1ccccc1)C1(C(=O)NCc2ccccc2)CCN(Cc2ccccc2)CC1 [Compound 39] | 15 ± 2 µM | 11 µM | 100 µM | 49 ± 1 µM |  |  |
| COC(=O)C[C@H](NC(=O)OC(C)(C)C)C(=O)N(Cc1ccc([N+](=O)[O-])cc1)C1(C(=O)NCc2ccccc2)CCN(Cc2ccccc2)CC1 [Compound 23] | 4 ± 0.6 µM | 3.1 µM | 75 µM | 49 ± 6 µM | 12 | 24 |
